Test results taken from patent US20040208864A1, “Methods of improving health-related quality of life in individuals with systemic lupus erythematosus” (priority 2002, published 2004).
Several values for one entry are separate records, joined by “and”; a condition that tells them apart may be missing. Equal entries are not always repeated. Entries after “also recorded” stand apart in the source; their conditions may differ. Where two headings read alike, the source gives them in different places.

Experiments:
anti-dsDNA = details: patients with SLE; cited from earlier work
B cells [1] = details: mice; cited from earlier work
SLE patients [2] = experiment: SF-36 health-related quality of life, Phase II/III (90-05) trial of LJP 394 vs placebo; format: in vivo, human; details: for Longitudinal Role Emotional and MCS scores vs placebo: available data only
Method: Patients were excluded if they had evidence of a renal flare within three months of screening; were receiving prednisone or prednisone equivalent >20 mg/day, azathioprine >200 mg/day, methotrexate >25 mg/wk and/or cyclophosphamide at any dose within three months of screening; or a serum creatinine level ≧2.5 mg/dL. The study was conducted in the US and Europe according to Good Clinical Practices and all patients provided voluntary informed consent.
A pharmacodynamic assay has been developed to measure the binding affinity of patients' anti-dsDNA antibodies to LJP 394 (Sem D S, et al. (1999) Arch Biochem Biophys 372:62-8; McNeeley Pa., et al. (2001) Lupus 10:526-532). The assay measures the binding of the total serum immunoglobulin G [IgG] fraction to the dsDNA epitope on LJP 394. Binding of IgG to the LJP 394 epitope is measured using surface plasmon resonance and the concentration required to reach half maximal binding is determined. This concentration defines the apparent Kd′ of the binding interaction and reflects the titer-weighted average affinity of the patient's IgG fraction for the LJP 394 epitope. Using this assay, patients were segregated into “high affinity” and “low affinity” subgroups. The segregation value was selected by comparing the affinity measured before exposure to LJP 394 with that following 16 weekly treatments with LJP 394 100 mg or placebo. The high-affinity (HA) population was defined as those patients with antibody binding affinities [Kd′]≦0.8 mg/mL pre-treatment.
In this double-blind, randomized controlled, multicenter trial, intravenously administered LJP 394 was compared with placebo in SLE patients with prior renal involvement. Patients were randomized to receive LJP 394 100 mg as a 2 ml bolus intravenous injection on a weekly basis or placebo for 76 weeks. After initiation of the trial, the protocol was amended to include 8 week off treatment periods alternating with 12 weekly treatments with 50 mg (1 ml bolus injection) LJP 394 or placebo. The first 16 weeks, when patients received 100 mg LJP 394 or placebo weekly, was considered the ‘induction period’, followed by ‘maintenance,’ when patients alternated 8 off and 12 weeks on treatment. The 20-week cycles were to be repeated three times for a total of 60 weeks.
(§1) The primary endpoint was the time to a documented renal flare, defined as reproducible increases from baseline in 24-hr proteinuria or serum creatinine >20% or at least 0.3 mg/dL, whichever was greater, accompanied by proteinuria, hematuria and/or red cell casts; or new onset or reproducible increase in hematuria accompanied by either an increase in 24-hr proteinuria or new red cell casts. Secondary outcome measures included the number of renal flares, time to institution of therapy with high dose corticosteroids (HDCC) and/or cyclophosphamide, incidence of treatment with HDCC and/or cyclophosphamide, and number of major SLE flares. HDCC was defined as an increase in oral, intravenous or intramuscular prednisone (or prednisone equivalent) greater than or equal to 15 mg per day from baseline to a dose greater than 20 mg per day for more than two days or any dose exceeding 200 mg in a single day. Topical, intra-articular, intra-lesional, or intra-ocular corticosteroid administration was excluded.
As a secondary objective, the SF-36 was included in the protocol for analysis, on an exploratory basis, to evaluate and interpret changes in health-related quality of life with active treatment compared with placebo. An additional secondary objective was to evaluate changes in health-related quality of life before and after a documented renal flare, with or without prior treatment with HDCC. The SF-36 was administered at baseline and weeks 16, 24, 36, 44, 56, 64, 76, or at early treatment withdrawal. All patients with a baseline and at least one post treatment health-related quality of life assessment were included in the analyses. […]

B cells [3] = details: rats; cited from earlier work
SLE patients [4] = experiment: Documented renal flares, Phase II/III study; format: in vivo, human
Method: as §1
The incidences of renal flares in patients of both sustained reduction group and the other group were documented and the results are shown in Table 7 for Phase III and Table 8 for Phase II/III.

[5] = High Affinity, no flares, induction phase
[6] = High affinity population, baseline (pre-treatment)
[7] = High affinity population, baseline to Week 16
[8] = ITT population, baseline (pre-treatment)
[9] = ITT population, baseline to Week 16
[10] = ITT, no flares, induction phase
[11] = Phase II/III, before renal flare
[12] = active treatment, pre vs post renal flare
[13] = patients with documented renal flare (n=37), before flare

For “abetimus sodium (sense GTGTGTGTGTGTGTGTGTGT; antisense CACACACACACACACACACA; sense: DNA, backbone not given here; antisense: DNA, backbone and methylation of C not given here; four deoxynucleotide duplexes bound to triethylene glycol valency platform) [LJP 394, tetravalent conjugate: four (CA)10.(TG)10 double-stranded 20-mer oligonucleotides on a triethylene glycol based valency platform]”, the “Effect on anti-dsDNA titers” value (anti-dsDNA) is listed as “selectively reduces anti-dsDNA titers”, the “Induction of antigen-specific B-cell tolerance” value (B cells [1]) is listed as “induce antigen-specific B-cell tolerance” and the “Difference in Role Emotional change scores between treatment groups” value (SLE patients [2]; [5]) is listed as 13.2. The “Difference in Social Functioning change scores between treatment groups” value (SLE patients [2]; [5]) was 5.5, the “SF-36 MCS Baseline Mean” value (SLE patients [2]; [6]) was 48.21 and the “SF-36 PCS Baseline Mean” value (SLE patients [2]; [6]) was 41.13. The “Difference between MCS change scores, active vs placebo” value (SLE patients [2]; [7]) was 2.2 points, the “Difference in Role Emotional change scores, active vs placebo” value (SLE patients [2]; [7]) was 15.9 points and the “Difference in Role Physical change scores, active vs placebo” value (SLE patients [2]; [7]) was 8.5 points. The “Difference in Social Functioning change scores, active vs placebo” value (SLE patients [2]; [7]) was 5.0, the “Magnitude of differences between active and placebo on Role Physical” value (SLE patients [2]; [7]) was 4.4 points and the “Mean change in SF-36 Social Functioning score” value (SLE patients [2]; [7]) was 4.9 points. For the same substance, the “SF-36 MCS Mean % Change” value (SLE patients [2]; [7]) was 6.10%, the “SF-36 MCS Mean Change” value (SLE patients [2]; [7]) was 1.49 and the “SF-36 PCS Mean % Change” value (SLE patients [2]; [7]) was 7.17%. The “SF-36 PCS Mean Change” value (SLE patients [2]; [7]) was 1.88, the “Patients reporting improvements in Role Emotional scores greater than the MCID” value (SLE patients [2]; ITT population, Week 16) was 24.2% and the “Baseline Role Emotional score” value (SLE patients [2]; [8]) was 69.1. The “SF-36 MCS Baseline Mean” value (SLE patients [2]; [8]) was 48.9 and 48.91, the “SF-36 PCS Baseline Mean” value (SLE patients [2]; [8]) was 41.0 and 41.03 and the “Difference in MCS change, active vs placebo” value (SLE patients [2]; [9]) was 2.1. For the same substance, the “Difference in Role Emotional change scores, active vs placebo” value (SLE patients [2]; [9]) was 15.8 points, the “Difference in Role Physical change scores, active vs placebo” value (SLE patients [2]; [9]) was 8.9 points and the “SF-36 MCS Mean % Change” value (SLE patients [2]; [9]) was 5.53%. For the same substance, the “SF-36 MCS Mean Change” value (SLE patients [2]; [9]) was 1.29, the “SF-36 PCS Mean % Change” value (SLE patients [2]; [9]) was 6.70% and the “SF-36 PCS Mean Change” value (SLE patients [2]; [9]) was 1.76. The “Difference in Social Functioning change scores between treatment groups” value (SLE patients [2]; ITT, induction phase (16 weeks)) was 4.7, the “Difference in Role Emotional change scores between treatment groups” value (SLE patients [2]; ITT, no HDCC, induction phase) was 9.7 and the “Difference in Social Functioning change scores between treatment groups” value (SLE patients [2]; ITT, no HDCC, induction phase) was 5.9. The “Difference in Role Emotional change scores between treatment groups” value (SLE patients [2]; [10]) was 12.3, the “Difference in Social Functioning change scores between treatment groups” value (SLE patients [2]; [10]) was 5.0 and the “Mean SF-36 domain scores after renal flare compared with placebo” value (SLE patients [2]; Phase II/III, after renal flare) was “remained better than placebo patients; also recorded: higher for LJP394-treated patients in all domains”. The “Mean SF-36 Pain domain score before renal flare” value (SLE patients [2]; [11]) was 60.13, the “Mean SF-36 domain scores before renal flare compared with placebo” value (SLE patients [2]; [11]) was “better scores than placebo in all domains except pain” and the “Mean SF-36 domain scores before renal flare compared with placebo” value (SLE patients [2]; Phase II/III, before renal flare, listed as LJP394) was “higher for LJP394-treated patients in all domains except pain”. The “SF-36 domain score changes pre/post renal flare compared with placebo” value (SLE patients [2]; Phase II/III, pre vs post renal flare) was “stabilization or improvement in all but one domain”, the “SF-36 domain score changes pre/post renal flare compared with placebo” value (SLE patients [2]; Phase II/III, pre vs post renal flare, listed as LJP394) was “all eight domains were more favorable; also recorded: all 8 domains were more favorable” and the “Change in Bodily Pain domain score before to after documented renal flare” value (SLE patients [2]; [12]) was 12.3 points. For the same substance, the “Change in Role Emotional domain score before to after documented renal flare” value (SLE patients [2]; [12]) was 2.1, the “Change in Social Functioning domain score before to after documented renal flare” value (SLE patients [2]; [12]) was 2.3 and the “Change in Vitality domain score before to after documented renal flare” value (SLE patients [2]; [12]) was 4.1. For the same substance, the “Longitudinal Role Emotional and MCS scores vs placebo” value (SLE patients [2]; after the 16 week induction phase) was “marked improvement”, the “Longitudinal Role Emotional and MCS scores vs placebo” value (SLE patients [2]; by week 36 of treatment) was “comparable between the two groups” and the “Role Emotional scores difference, LJP 394 versus placebo” value (SLE patients [2]; patients with data pre- and post-renal flares) was 20.2 points. For the same substance, the “Pre-flare difference between treatment groups in MCS summary score” value (SLE patients [2]; [13]) was 4.1 points, the “Pre-flare difference between treatment groups in Role Emotional score” value (SLE patients [2]; [13]) was 15.0 points and the “Pre-flare difference between treatment groups in Vitality score” value (SLE patients [2]; [13]) was 9.5 points. For the same substance, the “Post-flare difference in Role Emotional scores favoring active treatment” value (SLE patients [2]; patients with documented renal flare, post-flare) was 37.7 points, the “Induction of antigen-specific B-cell tolerance” value (B cells [3]) was “induce antigen-specific B-cell tolerance” and the “# Renal flares in Other patients” value (SLE patients [4]; Phase II/III) was 6. The “# Renal flares in patients with sustained reduction” value (SLE patients [4]; Phase II/III) was 1, the “Time to and number of renal flares compared with placebo” value (SLE patients [4]; high affinity population) was “significant reduction” and the “Time to renal flare between treatment groups” value (SLE patients [4]; intent-to-treat population, interim analysis) was “unlikely to reach statistical significance”.
